Data: patent US20090252816A1, “Inhalable Gaseous Medicament Based On Xenon And Nitrous Oxide” (AIR LIQUIDE SANTE (INRTERNATIONAL), priority 2003, published 2009)

Legend:
[1] = test system: sensitization to d-amphetamine; test: d-amphetamine sensitization protocol, locomotor activity in actimetry cages; format: in vivo, rat; conditions: for blocking of the sensitization process (locomotor activity in d-amphetamine test on D7): remainder oxygen, 3 h after each d-amphetamine injection D1-D3; for concentration necessary to block the sensitization process: d-amphetamine sensitization
Method: Male Sprague-Dawley rats weighing about 250 g were used in the experiments.
(§1) 15 groups of animals (of 7 or 8 animals each) were used, including 10 groups during the actual sensitization studies and 5 other groups during the histological studies of the neurons of the posterior and retrosplenial cingulate cortices.
The animals were injected intraperitoneally (i.p.) for 3 consecutive days from D1 to D3 with d-amphetamine (Amph; 1 mg/ml/kg) or, depending on the case, with a saline solution (1 ml/kg) for the control animals.
After each injection, the rats were immediately placed for 3 hours in a closed chamber, 100 liters in volume, flushed in dynamic regime with a constant flow rate of 5 l.min^−1, either with air (group 1: saline; group 2: Amph), or with 50% by volume of nitrous oxide (group 3: saline; group 4: Amph) or 75% (group 5: saline; group 6: Amph), or with 50% by volume of xenon (group 7: saline; group 8: Amph) or 75% (group 9: saline, group 10: Amph); the rest of the mixtures (remainder to 100%) being oxygen.
The locomotor activity of the animals of groups 1 to 10 was evaluated on D6, after an i.p. injection of a saline solution (1 ml/kg), and on D7 after an i.p. injection of d-amphetamine (1 mg/ml/kg). The locomotor activity of the animals in response to these injections was recorded using actimetry cages with photoelectric cells (Imétronic, Pessac. France).
The results obtained, given in the attached FIGS. 1 and 2, are expressed as the mean±standard error. The comparison of the groups was performed by means of nonparametric tests: Kruskall-Wallis analysis of variance, followed in the event of a significant result by the Mann-Whitney U test.

[2] = test system: dopamine release in the nucleus accumbens septi; test: dopamine release in slices of nucleus accumbens septi by differential pulse voltammetry; format: cell-based, rat
Method: In addition, the preparation of the slices of nucleus accumbens septi was performed as follows. The animals were decapitated under mild anesthesia with halothane and the brain was then rapidly removed. Frontal sections of 300 μm, corresponding to an anteriority of +0.70/1.20 mm (according to Bregma, Paxinos and Watson, 1998) were taken using a chopper (Mickie Laboratory Engineering Company, Gomshall, Surrey, UK). The brain slices were placed for recovery in a buffered saline solution with a temperature of 3-4° C. for at least 1 hour before use for neurochemical study.
The measurement of the dopamine release was performed by the technique of normal differential pulse voltammetry using a single-fiber carbon electrode 10 μm in diameter and 250 μm long (CFN10-250; World Precision Instruments, Aston, Stevenage, Hertfordshire, UK). The electrochemical treatment enabling this type of electrode to be made sensitive to dopamine consisted in applying a continuous current of −1.5 V into a phosphate-buffered saline solution for 20 seconds, followed by a triangular current of +2.6 V also for 20 seconds on the working electrode (Brazell et al., 1987). Under these conditions, the dopaminergic signal appears at a potential of +100 mV.
The rat brain slices were then placed in an organ tank and infused with artificial cerebrospinal fluid having the composition: NaCl 118 mM, MgCl2 1.18 mM, KCl 4.9 mM, NaH2PO4 1.25 mM, CaCl2 1.25 mM, NaHCO3 3.6 mM, d-glucose 10 mM, HEPES 30 mM, pH 7.4, the temperature of which was maintained at 34±1° C. using a temperature controller (Delta 4 Culture Dish Controller, Bioptechs, Butler, Pa., USA). The electrode was placed under microscopic control (microscope EFN 600, Nikon, Paris, France), 100 μm from the anterior commissure, using an optical micrometer incorporated into the microscope, and then fully descended into the nucleus accumbens septi, at an angle of 45°, and connected to the Biopulse polarograph set in normal differential pulse voltammetry mode with the following parameters: scanning potential −150+350 mV; scanning time 0.4 s, scanning amplitude 4 mV, for a scanning speed of 10 mV.s^−1, 40 ms measuring pulse; 70 ms measuring prepulse; 30 mV measuring amplitude.
The dopaminergic hyperstimulation was induced by adding d-amphetamine to the infusion liquid. Medical air, nitrous oxide or xenon was dissolved, to saturation, before use in the infusion liquid, the pH of which was readjusted to 7.4.

[3] = test system: posterior and retrosplenial cingulate cortices; test: histological study of neurons of the posterior and retrosplenial cingulate cortices after repeated gas exposure; format: in vivo, rat; conditions: for histological findings in posterior and retrosplenial cingulate cortices (neurotoxic effect): repeated exposure for 3 consecutive days
Method: as §1
In order to identify the possible neurotoxic potential of repeated exposure (3 hours per day […]) to nitrous oxide or to xenon on the posterior and retrosplenial cingulate cortices, 5 additional groups of animals were pretreated, according to a protocol identical to that defined above, by administration of a saline solution, and then exposed either to air (group 11) or to 50% or 75% nitrous oxide (groups 12 and 13) or to 50% or 75% xenon (groups 14 and 15).
To do this, after treatment, the animals were sacrificed on D8 by decapitation under general anesthesia with halothane, and the cranium was then immediately placed in a paraformaldehyde solution for one week. The brain was removed, coated with paraffin and sectioned into frontal slices of 4 μm mounted on gelatinized slides and stained with a hemalun-eosin-saffron solution. The posterior and retrosplenial cingulate cortices were analyzed using an optical microscope (×400).

[4] = test system: N-methyl-D-aspartate glutamatergic receptors; conditions: in vitro; Franks et al. 1998, Jevtovic-Todorovic et al. 1998; cited from earlier work
[5] = test system: glutamatergic receptors of AMPA type; conditions: Yakamura and Harris, 2000; cited from earlier work
weaning from alcohol = conditions: Lichtigfeld and Gillman 1989; cited from earlier work
[6] = toxicity threshold of xenon stated for man; conditions: in man
[7] = gas at 50 vol % or 75 vol % (summary statement)

Structure (SMILES): C[C@H](N)Cc1ccccc1.C[C@H](N)Cc1ccccc1.O=S(=O)(O)O [d-amphetamine, d-amphetamine sulfate]
- locomotor activity in d-amphetamine test on D7, animals pretreated with d-amphetamine versus saline ([1]; d-amphetamine 1 mg/ml/kg i.p. D1-D3, air): significantly higher
- dopamine signal relative to the measured basal signal ([2]; d-amphetamine at 10^-5 M in infusion liquid): significant increase

Structure (SMILES): [N-]=[N+]=O [nitrous oxide]
- locomotor activity in response to the saline test on D6 (long-term sedative effect) ([1]; gas at 50 vol % or 75 vol %, rats): no significant difference
- blocking of the sensitization process (locomotor activity in d-amphetamine test on D7) ([1]; gas at 50 vol %, rats): partial blocking
- blocking of the sensitization process (locomotor activity in d-amphetamine test on D7) ([1]; gas at 75 vol %, rats): significant blocking
- concentration necessary to block the sensitization process ([1]; rats): 75 vol %
- gas effect on acute d-amphetamine test at D7 in rats pretreated with saline solution ([1]; saline-pretreated rats, nitrous oxide exposure D1-D3): no “gas” effect
- histological findings in posterior and retrosplenial cingulate cortices (neurotoxic effect) ([3]; gas at 75 vol %): No similar effect
- increase in dopamine release induced with d-amphetamine [2, 7]: block the increase
- increase in dopamine release induced with d-amphetamine ([2]; gas at 75% by volume in the infusion liquid, d-amphetamine 10^-5 M): significantly reduced
- antagonist affinity for NMDA receptors [4]: low affinity
- effect on glutamatergic receptors of AMPA type [5]: no effect
- effect on weaning from alcohol (weaning from alcohol): slightly better than the placebo effect

Structure (SMILES): [Xe] [xenon]
- blocking of the sensitization process (locomotor activity in d-amphetamine test on D7) ([1]; gas at 50 vol %, rats): blocking of the sensitization
- blocking of the sensitization process (locomotor activity in d-amphetamine test on D7) ([1]; gas at 75 vol %, rats): blocking of the sensitization
- response to d-amphetamine on D7 in animals pretreated with saline solution ([1]; gas at 75 vol %, versus air or xenon at 50 vol %): significant increase
- concentration necessary to block the sensitization process ([1]; rats): 50 vol %
- histological findings in posterior and retrosplenial cingulate cortices (neurotoxic effect) ([3]; gas at 50 vol %): No similar effect
- histological findings in posterior and retrosplenial cingulate cortices (neurotoxic effect) ([3]; gas at 75 vol %): generalized cytoplasmic clarification
- toxicity threshold ([3]; in rats): about 75%
- increase in dopamine release induced with d-amphetamine ([2]; gas at 50% by volume in the infusion liquid, d-amphetamine 10^-5 M): significantly reduced
- increase in dopamine release induced with d-amphetamine [2, 7]: block the increase
- toxicity threshold [6]: about 60%
- antagonist affinity for NMDA receptors [4]: low affinity
- effect on glutamatergic receptors of AMPA type [5]: no effect
